Results published in publication PMC6753678, “Fueling Open Innovation for Malaria Transmission-Blocking Drugs: Hundreds of Molecules Targeting Early Parasite Mosquito Stages” (Frontiers in Microbiology, 2019).
Where two headings read alike, the source gives them in different places.

What was measured:
[1] = test system: P. falciparum female gametocytes; experiment: P. falciparum female gametogenesis assay (Pf FGAA); settings: 1: YES; 0: NO
[2] = test system: P. falciparum late stage (stages IV-V) gametocytes; parameters: method as in Almela et al 2016; settings: TCAMS screen comparison; ref Almela et al 2016; read-out: Pf GCT ATP IC50; cited from earlier work
[3] = test system: HepG2 cells; settings: cited from earlier work
[4] = test system: P. falciparum female gametocytes; parameters: method as in Miguel-Blanco et al 2017; settings: TCAMS screen comparison; ref Miguel-Blanco et al 2017; read-out: Pf FGAA IC50; cited from earlier work
[5] = test system: P. falciparum late stage (stages IV-V) gametocytes; experiment: P. falciparum late stage gametocyte ATP depletion assay (Pf GC-ATP); settings: 1: YES; 0: NO
[6] = test system: HepG2 cells; experiment: HepG2 cytotoxicity assay; settings: HepG2 cytotoxicity unified across the three screens
In short: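 Cells at 2,500 per well in MEM with 10% fetal bovine serum and 1% NEAA were exposed to test compounds for 48 h at 37°C, 5% CO2. Viability was read by fluorescence, with percent inhibition calculated against 50 μM doxorubicin (positive) and DMSO (negative) controls.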

[7] = value reported with the Pf GCT ATP screen, ref Almela et al 2016
[8] = value reported with the Pf FGAA screen, ref Miguel-Blanco et al 2017

| SMILES | Is compound selective in assay? Pf FGAA active? [1] | IC50 [2] [nM] | HepG2 cytoxicity [3, 7] [µM] | IC50 [4] [nM] | Is compound selective in assay? Pf GC-ATP active? [5] | Unified cytotox [6] [µM] | HepG2 cytoxicity [3, 8] [µM] |
| --- | --- | --- | --- | --- | --- | --- | --- |
| S=C(NN=Cc1ccccn1)NC1CC2C=CC1C2 (stereo not drawn) [TCMDC-125752] | 1 (1: YES) | 110 | 0.7 | 15.3 | 0 (0: NO) | 0.70 |  |
| COc1ccc(CCNCCCCCCNCCc2ccc(-c3ccccc3)cc2)cc1OC.Cl [TCMDC-131267] | 0 (0: NO) | 170 | 3.25 | 1260 | 1 (1: YES) | 5.07 | 6.90 |
| COc1ccc(CCNCCCCCCNCCc2ccc(Cl)c3ccccc23)cc1OC.Cl [TCMDC-131270] | 0 (0: NO) | 130 | 3.23 | 580 | 1 (1: YES) | 2.68 | 2.12 |
| Br.Oc1ccc(CCNCCCCCCNCCc2ccc(Cl)c3ccccc23)cc1O [TCMDC-131271] | 0 (0: NO) | 530 | 13.5 | 2380 | 1 (1: YES) | 12.36 | 11.22 |
| COc1ccc(CCNCCCCCCNCCc2ccc(Cl)cc2)c(Cl)c1OC.Cl [TCMDC-131272] | 0 (0: NO) | 260 | 6.2 | 830 | 1 (1: YES) | 5.87 | 5.54 |
| Br.CCCCc1ccc(CCNCCCCCCNCCc2ccc(O)c(O)c2)cc1 [TCMDC-131281] | 0 (0: NO) | 540 | 8.19 | 2150 | 1 (1: YES) | 6.41 | 4.63 |
| CCC(CSC1CCCCC1)N(C)CCN(C)C(CC)CSC1CCCCC1.Cl (stereo not drawn) [TCMDC-131456] | 0 (0: NO) | 1400 | 0.87 | 1250 | 0 (0: NO) | 0.47 | 0.0654 |
| C[C@H](Cc1ccc(C[C@@H](C)NC[C@H](O)c2cccc(Cl)c2)cc1)NC[C@H](O)COc1ccccc1.Cl [TCMDC-131549] | 0 (0: NO) | 920 | 4.7 | 1390 | 0 (0: NO) | 4.94 | 5.19 |
| C[C@H](Cc1ccc(CCc2ccc(C[C@@H](C)NC[C@H](O)c3cccc(Cl)c3)cc2)cc1)NC[C@H](O)c1cccc(Cl)c1.Cl [TCMDC-131551] | 0 (0: NO) | 270 | 3.1 | 2050 | 1 (1: YES) | 3.68 | 4.27 |
| C[C@H](Cc1ccc(Oc2ccc(C[C@@H](C)NC[C@H](O)c3cccc(Cl)c3)cc2)cc1)NC[C@H](O)c1cccc(Cl)c1.Cl [TCMDC-131560] | 0 (0: NO) | 270 | 1.91 | 720 | 0 (0: NO) | 1.98 | 2.04 |
| C[C@H](Cc1ccc(OCCCCCOc2ccc(C[C@@H](C)NC[C@H](O)c3cccc(Cl)c3)cc2)cc1)NC[C@H](O)c1cccc(Cl)c1.Cl [TCMDC-131563] | 0 (0: NO) | 550 | 1.79 | 960 | 0 (0: NO) | 1.95 | 2.11 |
| N=C(/N=C(/NCCCCCCN/C(=N\C(=N)Nc1ccc(Cl)cc1)N1CCCCC1)N1CCCCC1)Nc1ccc(Cl)cc1 [TCMDC-131811] | 0 (0: NO) | 380 | 22.9 | 7870 | 1 (1: YES) | 33.57 | 44.23 |
| N=C(/N=C(/NCCCCCCN/C(=N/C(=N)NCc1ccc(Cl)c(Cl)c1)N1CCCCC1)N1CCCCC1)NCc1ccc(Cl)c(Cl)c1 [TCMDC-131816] | 1 (1: YES) | 370 | >25 | 2610 | 1 (1: YES) | 43.18 | 43.18 |
| CCN(CC)/C(=N/C(=N)NCc1ccc(Cl)cc1Cl)NCCCCCCN/C(=N\C(=N)NCc1ccc(Cl)cc1Cl)N(CC)CC [TCMDC-131819] | 0 (0: NO) | 300 |  | 4750 | 1 (1: YES) | 36.73 | 36.73 |
| CCCCN(CCCC)/C(=N/C(=N)NCc1ccc(Cl)c(Cl)c1)NCCCCCCN/C(=N\C(=N)NCc1ccc(Cl)c(Cl)c1)N(CCCC)CCCC [TCMDC-131821] | 0 (0: NO) | 620 | 12.4 | 2510 | 1 (1: YES) | 13.18 | 13.96 |
| COc1cc2nc(NCCCN3CCCCC3)nc(NCc3ccccc3)c2cc1OC [TCMDC-132012] | 0 (0: NO) | 300 | 8.94 | 900 | 1 (1: YES) | 7.89 | 6.84 |
| CCc1c(CCNCCCCCCNC(C)Cc2ccc3c(c2CC)OCO3)ccc(OC)c1OC.Cl (stereo not drawn) [TCMDC-132052] | 0 (0: NO) | 330 | 3.1 | 480 | 0 (0: NO) | 2.78 | 2.46 |
| CCc1c(CCNCCCCCCNC(C)(C)Cc2ccc3c(c2CC)OCO3)ccc(OC)c1OC.Cl [TCMDC-132055] | 0 (0: NO) | 270 | 4.37 | 1220 | 1 (1: YES) | 4.32 | 4.27 |
| Nc1c(Cl)cc(C(O)CNCCCCCOCCCc2ccc(O)c3ncccc23)cc1Cl.O=C(O)/C=C/C(=O)O (stereo not drawn) [TCMDC-132088] | 0 (0: NO) | 450 | 4.51 | 2100 | 1 (1: YES) | 6.14 | 7.76 |
| O=C(O)C(F)(F)F.O=S(=O)(NCCN1CCCC1)c1cccc(-c2ccc(CNC3Cc4ccccc4C3)cc2)c1 [TCMDC-132241] | 0 (0: NO) | 2150 | 8 | 3100 | 0 (0: NO) | 7.23 | 6.46 |
